For the assay, the target named is T1, Prostaglandin G/H synthase 2 (Homo sapiens, UniProt P35354).
T1 sequence (P35354 whole entry): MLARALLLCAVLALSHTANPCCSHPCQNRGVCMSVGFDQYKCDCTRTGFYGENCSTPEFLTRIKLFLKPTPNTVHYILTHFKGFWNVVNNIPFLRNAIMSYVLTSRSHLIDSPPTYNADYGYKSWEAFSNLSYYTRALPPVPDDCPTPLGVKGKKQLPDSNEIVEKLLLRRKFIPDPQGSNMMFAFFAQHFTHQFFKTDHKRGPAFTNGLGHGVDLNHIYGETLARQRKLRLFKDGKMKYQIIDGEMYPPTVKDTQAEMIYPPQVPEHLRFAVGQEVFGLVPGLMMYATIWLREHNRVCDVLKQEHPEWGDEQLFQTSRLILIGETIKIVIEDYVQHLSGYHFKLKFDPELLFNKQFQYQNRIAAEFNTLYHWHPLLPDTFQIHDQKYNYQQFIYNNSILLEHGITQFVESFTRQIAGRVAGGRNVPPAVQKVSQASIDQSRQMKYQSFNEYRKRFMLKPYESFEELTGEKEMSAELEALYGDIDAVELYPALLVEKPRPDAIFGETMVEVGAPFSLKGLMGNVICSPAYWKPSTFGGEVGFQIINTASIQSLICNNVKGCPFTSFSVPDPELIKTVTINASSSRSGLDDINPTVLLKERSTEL
The experiment in a line: Inhibition of COX2 in Homo sapiens (human) whole blood.
For orientation: IC50 means the concentration needed to halve the response being measured. Regarding `CS(=O)(=O)c1ccc(-c2nc(NC3CC=CCC3)cc(C(F)(F)F)n2)cc1` (centres undefined), half-maximal inhibition (IC50) required 32.9 nM.

As for `NS(=O)(=O)c1ccc(-c2nc(NCc3ccccc3)cc(C(F)(F)F)n2)cc1`, the IC50 was 3330 nM.

As to `Cn1cccc1CCCNc1cc(C(F)(F)F)nc(-c2ccc(S(C)(=O)=O)cc2)n1`, the IC50 turned out to be 3980 nM.

Compound `CS(=O)(=O)c1ccc(-c2nc(NCCCc3cccs3)cc(C(F)(F)F)n2)cc1` displayed a half-maximal inhibitory concentration (IC50) of 1210 nM.

The record behind these values is ChEMBL document CHEMBL3046334 (Med Chem Res, 2012).
